Results as given in patent US12351821B2, “Method to prepare sperm” (University of Massachusetts, priority 2016, dated 2025).

What was measured:
mouse sperm = test: Sperm motility and hyperactivation by CASA after transient A23187 pre-treatment; type: cell-based
Description: (§1) Sperm from CD-1, C57BL6 (K.O control), CatSper KO 19, SLO3 KO (56), Soluble Adenylyl Cyclase KO (20), and PMC4 KO (35) cauda epididymides were allowed to swim out in 1 mL of standard TYH for 10 minutes. Each swim out tube was split in two halves (500 μl each) and one half was incubated with 20 uM A23187 for 10 minutes. Then, the A23187 was washed by centrifugation as described above (2000 and 1500 RPMS×5 min), the remaining sperm were re-suspended in free A23187 TYH standard medium and capacitated for an addition 1 hour and 20 minutes before adding the sperm to the fertilization drop or for CASA analysis.
Sperm suspensions (25 μl) were loaded into one pre-warmed chamber slide (depth, 100 μm) (Leja slide, Spectrum Technologies) and placed on a microscope stage at 37° C. Sperm movements were examined using the CEROS computer-assisted semen analysis (CASA) system (Hamilton Thorne Research, Beverly, MA). The default settings include the following: frames acquired: 90; frame rate: 60 Hz; minimum cell size: 4 pixels; static head size: 0.13-2.43; static head intensity: 0.10-1.52; static head elongation: 5-100. Sperm with hyper activated motility, defined as motility with high amplitude thrashing patterns and short distance of travel, were sorted using the criteria established by (64). The data was analyzed using the CASA nova software (64). At least 20 microscopy fields corresponding to a minimum of 200 sperm were analyzed in each experiment.

PKA = test: Western blot with anti-phosphoPKA substrate antibodies in sperm; type: cell-based, mouse
Description: Cauda epididymal mouse sperm were placed in 1 ml Hepes-TYH media as stated in figure legend for each experiment. After 10 min incubation at 37° C., epididymides were removed, and the suspension adjusted with non-cap medium to a final concentration of 1-2×10^7 cells/ml. After dilution 1:4 (total 400 μl), sperm were incubated at 37° C. for 1 hour in conditions that support or not capacitation. For capacitation, media was supplemented with 15 mM NaHCO3 and 4 mg/ml BSA. For A23187 treatment, 500 uL of the sperm suspension were taken from the initial swim out and supplemented with 20 μM A23187 for 10 minutes. Then, A23187 was washed off with 2 rounds of centrifugations 1-) 2000 RPMS and the 2-) 1500 RPMS for 5 min each. Sperm were re-suspended in free A23187 media. To evaluate the behavior of A23187 when PKA is inactivated, H89 was used at a concentration of 50 uM for all incubation periods including those used for washing A23187. Sperm proteins were then extracted for western blotting.
Sperm were centrifuged, and washed in 1 ml of phosphate buffer solution (PBS), re-suspended in Laemmli sample buffer (63), and boiled for 4 min. Before Loading, 5% β-mercaptoethanol was added to the protein extracts and boiled for 3 min. Protein extracts equivalent to 1×10^6 sperm were loaded per line and subjected to SDS-PAGE an electro-transfer to PVDF membranes (Bio-Rad) at 250 mA for 60 min on ice. […]

[1] = test system: pseudo-pregnant CD-1 recipient females; test: Non-surgical embryo transfer to pseudo-pregnant females, pups born; type: in vivo, mouse
Description: (§2) Fertilized 2 cell embryos were cultured in KSOM media to blastocyst stage between 3.5 days wt and K. O between 3.8 to 4.1 days. Then they were transferred to 2.5 days post coitum (dpc) pseudo-pregnant CD-1 recipient females using the non-surgical uterine embryo transfer device (65). Pseudo-pregnant CD-1 recipient females were obtained by mating with vasectomized males one day after in vitro fertilization. Only females with a clear plug were chosen as embryo recipients; late morula and early stage blastocysts were chosen to be transferred. Routine genotyping was performed with total DNA from tail biopsy samples from weaning age pups as templates for PCR using genotyping primers for Catsper gene forward [5′-[…]-3′, Seq ID NO: 1] and reverse [S′-[…]-3′; Seq ID NO: 2] and for the reporter gene Lacz forward [5′[…]-3′; Seq ID NO: 3] and reverse [5′-[…]-3′: Seq ID NO: 4] (19).

[2] = test system: mouse sperm (fertilizing capacity, metaphase II-arrested eggs); test: In vitro fertilization assay with ionophore pre-treated sperm; type: cell-based; settings: for fertilizing capacity: A23187 treatment
Description: as §1
Metaphase II-arrested eggs were collected from 6-8 week-old super ovulated CD-1 female mice (Charles River Laboratories). Females were each injected with 5-10 IU equine chorionic gonadotropin and 5-10 IU human chorionic gonadotropin 48 h apart. The cumulus-oocyte complexes (COC's) were placed into a well with 500 μl of media (TYH standard medium) previously equilibrated in an incubator with 5% CO2 at 37° C. Fertilization wells containing 20-30 eggs were inseminated with sperm (final concentration of 2.5×10^6 cells/ml) that had been incubated for 1 h and 20 min (in a medium supporting capacitation with or without calcium ionophore treatment A23187). After 4 h of insemination, eggs were washed and put in a fresh media. The eggs were evaluated 24 h post-insemination. To assess fertilization the three following criteria were considered: 1) the formation of the male and female pronuclei, 2) the emission of the second polar body, and 3) two cells stages.

[3] = test system: 2 cell embryos from eggs fertilized by treated sperm; test: Embryo culture of 2 cell embryos in KSOM to blastocyst stage; type: cell-based, mouse; settings: for percentage of blastocyst in relation to the number of two-cell embryos: CatSper KO sperm, 3.5 days in KSOM
Description: as §2

[4] = H89-treated C57BL6 sperm incubated 10 min in A23187

## CNc1ccc2oc(C[C@H]3O[C@@]4(CC[C@H]3C)O[C@H]([C@H](C)C(=O)c3ccc[nH]3)[C@H](C)C[C@H]4C)nc2c1C(=O)O [A23187]
Mouse sperm; C57BL6 sperm, short pulse of A23187 (20 uM, 10 min), compared with CD1 sperm
  percentage of hyperactive sperm: increased the percentage of hyperactive C57BL6 sperm to similar levels as those obtained using CD1 sperm
Mouse sperm; CatSper1 KO sperm, 20 μM A23187 10 min then washed
  hyperactivated motility: a significant number of CatSper KO sperm exhibited hyperactivated motility
Mouse sperm; PMCA4 KO sperm, A23187 addition and removal
  sperm motility: rendered all the sperm motionless and their motility was not recovered after ionophore removal
Mouse sperm; PMCA4 KO sperm, A23187 treatment
  hyperactivated motility: neither their hyperactivated motility nor their fertilizing capacity was rescued
Mouse sperm; sAC KO and SLO3 KO sperm, A23187 for 10 min
  hyperactivation: underwent hyperactivation
Mouse sperm; sAC KO sperm, A23187 for 10 min
  sperm motility: a significant fraction of sAC KO sperm became motile
PKA; [4]
  PKA activity in H89-treated sperm after A23187: PKA remains inactive
[1]; C57BL6 sperm after A23187 treatment
  outcome of blastocysts non-surgically transferred to pseudo pregnant females: became live pups
[1]; CatSper KO sperm, A23187 alone, 15 blastocysts transferred
  heterozygous pups born: three
[1]; blastocysts from A23187-treated CatSper KO sperm, two different females
  CatSper (+/-) mouse pups born: five
[2]; C57BL6 sperm, A23187 pre-treatment
  sperm fertilization rate: significant increase
[2]; CatSper1 KO sperm, A23187 transient treatment alone
  infertile phenotype (two-cell embryos developed): rescued the infertile phenotype
[2]; CatSper KO sperm, A23187-treated
  fertilization of metaphase II-arrested eggs in vitro: competent to fertilize
[2]; CatSper KO sperm, starved plus rescue treatment followed by A23187 transient treatment
  fertilization rate: ~90%
[2]; FerTDR/DR sperm, A23187 transient incubation
  sperm fertilization rate: improved
[2]; [4]
  fertilizing capacity of H89-treated sperm: sufficient to induce fertilizing capacity
[2]; PMCA4 KO sperm
  fertilizing capacity: neither their hyperactivated motility nor their fertilizing capacity was rescued
[2]; sAC KO and SLO3 KO sperm
  fertilizing capacity: induced fertilizing capacity in sperm from both KO models
[3]; A23187 transient treatment alone
  percentage of blastocyst in relation to the number of two-cell embryos: 20%
[3]; combined starved plus rescue with A23187 transient treatment
  percentage of blastocyst in relation to the number of two-cell embryos: ~90%
[3]; eggs fertilized by C57BL6 sperm after A23187 treatment, control about 50%
  fertilized eggs that continued to the blastocyst stage: over 80%

## O=S(=O)(NCCNCC=Cc1ccc(Br)cc1)c1cccc2cnccc12 [H89, N-[2-[[3-(4-bromophenyl)-2-propen-1-yl]amino]ethyl]5-isoquinolinesulfonamide]
PKA; C57BL6 sperm, H89 50 uM
  PKA substrate phosphorylation: do not show the prototypical increase in PKA substrate phosphorylation
[2]; C57BL6 sperm, H89 50 uM
  ability to fertilize in vitro in the presence of PKA inhibitor: unable to fertilize in vitro
